Experimental data published in US12319664B2, “Herbicidally active 3-phenylisoxazoline-5-carboxamides of cyclopentenylcarboxylic acid derivatives” (Bayer Aktiengesellschaft, priority 2018, dated 2025).

Legend:
[1] = system: ALOMY; experiment: Pre-emergence herbicidal action against ALOMY; format: in vivo, Alopecurus myosuroides; conditions: application rate 80 g/ha, scored visually after about 3 weeks vs untreated controls (100% = plants have died, 0% = like control plants)
In short: (§1)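 Compounds, as wettable powders or emulsion concentrates diluted in water plus 0.5% additive, go onto the soil over freshly sown seeds at 600 l/ha. Greenhouse incubation follows. Scoring is visual, in %, at ~3 weeks.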

[2] = system: AVEFA; experiment: Pre-emergence herbicidal action against AVEFA; format: in vivo, Avena fatua; conditions: application rate 80 g/ha, scored visually after about 3 weeks vs untreated controls (100% = plants have died, 0% = like control plants)
In short: as §1

[3] = system: ECHCG; experiment: Pre-emergence herbicidal action against ECHCG; format: in vivo, Echinochloa crus-galli; conditions: application rate 80 g/ha, scored visually after about 3 weeks vs untreated controls (100% = plants have died, 0% = like control plants)
Excerpt: (§2) 1. Pre-emergence herbicidal action against harmful plants and crop plant compatibility Seeds of monocotyledonous and dicotyledonous weed plants and crop plants are placed in plastic or wood-fibre pots and covered with soil. The compounds of the invention, formulated in the form of wettable powders (WP) or as emulsion concentrates (EC), are then applied onto the surface of the covering soil as aqueous suspension or emulsion with addition of 0.5% additive at a water application rate of 600 l/ha (converted). After the treatment, the pots are placed in a greenhouse and kept under good growth conditions for the trial plants. After about 3 weeks, the effect of the preparations is scored visually in comparison with untreated controls as percentages. For example, 100% activity=the plants have died, 0% activity=like control plants. [table]

[4] = system: LOLRI; experiment: Pre-emergence herbicidal action against LOLRI; format: in vivo, Lolium rigidum; conditions: application rate 80 g/ha, scored visually after about 3 weeks vs untreated controls (100% = plants have died, 0% = like control plants)
In short: as §1

[5] = system: SETVI; experiment: Pre-emergence herbicidal action against SETVI; format: in vivo, Setaria viridis; conditions: application rate 80 g/ha, scored visually after about 3 weeks vs untreated controls (100% = plants have died, 0% = like control plants)
In short: as §1

[6] = system: ABUTH; experiment: Pre-emergence herbicidal action against ABUTH; format: in vivo, Abutilon theophrasti; conditions: application rate 80 g/ha, scored visually after about 3 weeks vs untreated controls (100% = plants have died, 0% = like control plants)
Excerpt: as §2

[7] = system: AMARE; experiment: Pre-emergence herbicidal action against AMARE; format: in vivo, Amaranthus retroflexus; conditions: application rate 80 g/ha
In short: as §1

[8] = system: PHBPU; experiment: Pre-emergence herbicidal action against PHBPU; format: in vivo, Pharbitis purpurea; conditions: application rate 80 g/ha
Excerpt: as §2

[9] = system: POLCO; experiment: Pre-emergence herbicidal action against POLCO; format: in vivo, Polygonum convolvulus; conditions: application rate 80 g/ha
In short: as §1

[10] = system: STEME; experiment: Pre-emergence herbicidal action against STEME; format: in vivo, Stellaria media; conditions: application rate 80 g/ha
In short: as §1

[11] = system: VIOTR; experiment: Pre-emergence herbicidal action against VIOTR; format: in vivo, Viola tricolor; conditions: application rate 80 g/ha
In short: as §1

[12] = system: VERPE; experiment: Pre-emergence herbicidal action against VERPE; format: in vivo, Veronica persica; conditions: application rate 80 g/ha
Excerpt: as §2

[13] = system: HORMU; experiment: Pre-emergence herbicidal action against HORMU; format: in vivo, Hordeum murinum; conditions: application rate 80 g/ha
In short: as §1

[14] = system: POLCO; experiment: Post-emergence herbicidal action against POLCO; format: in vivo, Polygonum convolvulus; conditions: application rate 80 g/ha, rated visually about 3 weeks after treatment
In short: (§3)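 Visual scoring, about three weeks after a post-emergence spray, compares treated plants with untreated controls on a 0–100% scale. Spraying used WP or EC preparations with 0.5% additive at 600 l/ha on one-leaf-stage plants grown in sandy loam.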

[15] = system: MATIN; experiment: Pre-emergence herbicidal action against MATIN; format: in vivo, Matricaria inodora; conditions: application rate 80 g/ha, scored visually after about 3 weeks vs untreated controls (100% = plants have died, 0% = like control plants)
Excerpt: as §2

[16] = system: ALOMY; experiment: Post-emergence herbicidal action against ALOMY; format: in vivo, Alopecurus myosuroides; conditions: application rate 80 g/ha, rated visually after about 3 weeks
In short: as §3

[17] = system: AVEFA; experiment: Post-emergence herbicidal action against AVEFA; format: in vivo, Avena fatua; conditions: application rate 80 g/ha, rated visually after about 3 weeks
In short: as §3

[18] = system: ECHCG; experiment: Post-emergence herbicidal action against ECHCG; format: in vivo, Echinochloa crus-galli; conditions: application rate 80 g/ha, rated visually after about 3 weeks
In short: as §3

[19] = system: LOLRI; experiment: Post-emergence herbicidal action against LOLRI; format: in vivo, Lolium rigidum; conditions: application rate 80 g/ha, rated visually after about 3 weeks
In short: as §3

[20] = system: SETVI; experiment: Post-emergence herbicidal action against SETVI; format: in vivo, Setaria viridis; conditions: application rate 80 g/ha, rated visually after about 3 weeks
In short: as §3

[21] = system: MATIN; experiment: Post-emergence herbicidal action against MATIN; format: in vivo, Matricaria inodora; conditions: application rate 80 g/ha, rated visually about 3 weeks after treatment
In short: as §3

[22] = system: PHBPU; experiment: Post-emergence herbicidal action against PHBPU; format: in vivo, Pharbitis purpurea; conditions: application rate 80 g/ha, rated visually about 3 weeks after treatment
In short: as §3

[23] = system: STEME; experiment: Post-emergence herbicidal action against STEME; format: in vivo, Stellaria media; conditions: application rate 80 g/ha, rated visually about 3 weeks after treatment
In short: as §3

[24] = system: ABUTH; experiment: Post-emergence herbicidal action against ABUTH; format: in vivo, Abutilon theophrasti; conditions: application rate 80 g/ha, rated visually about 3 weeks after treatment
In short: as §3

[25] = system: AMARE; experiment: Post-emergence herbicidal action against AMARE; format: in vivo, Amaranthus retroflexus; conditions: application rate 80 g/ha, rated visually about 3 weeks after treatment
In short: as §3

[26] = system: VERPE; experiment: Post-emergence herbicidal action against VERPE; format: in vivo, Veronica persica; conditions: application rate 80 g/ha
In short: as §3

[27] = system: VIOTR; experiment: Post-emergence herbicidal action against VIOTR; format: in vivo, Viola tricolor; conditions: application rate 80 g/ha, rated visually about 3 weeks after treatment
In short: as §3

[28] = system: HORMU; experiment: Post-emergence herbicidal action against HORMU; format: in vivo, Hordeum murinum; conditions: application rate 80 g/ha
In short: as §3

SMILES	Herbicidal action against [%] ALOMY [1]	Herbicidal action against [%] AVEFA [2]	Herbicidal action against [%] ECHCG [3]	Herbicidal action against [%] LOLRI [4]	Herbicidal action against [%] SETVI [5]	Herbicidal action against [%] ABUTH [6]	Herbicidal action against [%] AMARE [7]	Herbicidal action against [%] PHBPU [8]	Herbicidal action against [%] POLCO [9]	Herbicidal action against [%] STEME [10]	Herbicidal action against [%] VIOTR [11]	Herbicidal action against [%] VERPE [12]	Herbicidal action against [%] HORMU [13]	Herbicidal action against [%] POLCO [14]	Herbicidal action against [%] ALOMY [16]	Herbicidal action against [%] AVEFA [17]	Herbicidal action against [%] LOLRI [19]	Herbicidal action against [%] SETVI [20]	Herbicidal action against [%] PHBPU [22]	Herbicidal action against [%] STEME [23]	further results
CN(C)C(=O)C1=CCC(NC(=O)C2(C)CC(c3cccc(F)c3)=NO2)C1 (mixture of isomers) [IV-02]	100%	90%	90%	100%	90%	80%	100%	80%	100%	90%	90%	90%	100%	80%							
CC1(C(=O)N[C@H]2C=C[C@@H](C(=O)O)C2)CC(c2cccc(F)c2)=NO1 (stereo partly shown) [Example I-002]	90%	80%	90%	100%	100%		90%	90%	90%	100%	80%		80%		90%	80%	80%	80%	80%	90%	Herbicidal action against [%] MATIN [15]: 80%; Herbicidal action against [%] ECHCG [18]: 80%; Herbicidal action against [%] MATIN [21]: 80%
CC(C)C(C#N)NC(=O)C1C=CC(NC(=O)C2(C)CC(c3cc(F)cc(F)c3)=NO2)C1 (mixture of isomers) [II-12]	90%	80%		90%	90%	80%	90%		100%	90%	80%			80%	90%	80%	80%	80%	80%	90%	Herbicidal action against [%] ABUTH [24]: 80%; Herbicidal action against [%] AMARE [25]: 80%; Herbicidal action against [%] VERPE [26]: 80%
C=CC1(C(=O)NC2C=CC(C(=O)OCC)C2)CC(c2cc(F)cc(F)c2)=NO1 (stereo not shown) [Example I-013]	100%	100%	100%	100%	100%	90%	100%	90%	90%	100%	100%	90%	100%	90%	80%	90%	90%	90%	80%	80%	Herbicidal action against [%] MATIN [15]: 100%; Herbicidal action against [%] ECHCG [18]: 80%; Herbicidal action against [%] ABUTH [24]: 80%; Herbicidal action against [%] AMARE [25]: 80%; Herbicidal action against [%] MATIN [21]: 90%; Herbicidal action against [%] VIOTR [27]: 80%; Herbicidal action against [%] VERPE [26]: 80%; Herbicidal action against [%] HORMU [28]: 90%
C=CC1(C(=O)NC2C=CC(C(=O)OC)C2)CC(c2cc(F)cc(F)c2)=NO1 (stereo not shown) [Example I-012]	100%	90%	100%	100%	100%	90%	100%	90%	90%	100%	90%	100%	90%	80%	90%	100%	90%	90%	90%	80%	Herbicidal action against [%] MATIN [15]: 90%; Herbicidal action against [%] ECHCG [18]: 90%; Herbicidal action against [%] ABUTH [24]: 80%; Herbicidal action against [%] AMARE [25]: 90%; Herbicidal action against [%] MATIN [21]: 90%; Herbicidal action against [%] VIOTR [27]: 80%; Herbicidal action against [%] VERPE [26]: 80%; Herbicidal action against [%] HORMU [28]: 100%
